Measured values reported in patent US20070054353A1, “Nuclear receptor transcriptional corepressor and uses thereof” (priority 2002, published 2007).
Where a SMILES comes first, the peptide text is derived from it. [ ]: non-standard residue; d: D form. Aoe = N[C@@H](CCCCCC(=O)[C@@H]1CO1)C(=O)O

What was measured:
[1] = target: T1, interaction of LCoR and ERα (Homo sapiens, UniProt P03372); assay: BRET assay of LCoR-ERα interaction in living COS-7 cells; assay type: cell-based; settings: 10^−7M ligand, COS-7 cells cotransfected with ERα-EYFP and LCoR-rluc
T1 construct: expressed in transfected cells; host or cells: COS-7
T1 sequence (P03372 1-595): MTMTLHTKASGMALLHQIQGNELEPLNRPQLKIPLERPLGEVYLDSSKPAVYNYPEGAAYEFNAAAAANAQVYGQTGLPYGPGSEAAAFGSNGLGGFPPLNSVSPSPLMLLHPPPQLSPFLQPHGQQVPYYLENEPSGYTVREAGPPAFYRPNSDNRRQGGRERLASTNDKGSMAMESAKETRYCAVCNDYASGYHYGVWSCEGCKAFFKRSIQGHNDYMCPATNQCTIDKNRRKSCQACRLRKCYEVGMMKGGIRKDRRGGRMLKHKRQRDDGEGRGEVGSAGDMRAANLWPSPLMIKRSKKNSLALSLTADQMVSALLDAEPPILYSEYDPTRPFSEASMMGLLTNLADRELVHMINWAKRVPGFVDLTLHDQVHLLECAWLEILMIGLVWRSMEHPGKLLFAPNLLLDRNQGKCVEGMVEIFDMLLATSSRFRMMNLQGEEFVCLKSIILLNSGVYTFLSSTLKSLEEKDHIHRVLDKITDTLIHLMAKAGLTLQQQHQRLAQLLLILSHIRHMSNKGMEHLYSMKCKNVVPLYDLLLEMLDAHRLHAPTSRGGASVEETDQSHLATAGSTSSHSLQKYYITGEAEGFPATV
Experimental: Readings were started immediately after coelenterazine H addition, and 10 repeated measures were taken.
Interaction of ERα and LCoR in vivo was further tested by bioluminescence resonance energy transfer (BRET) in living COS-7 cells transiently cotransfected with plasmids expressing ERα-EYFP and LCoR-rluc fusion proteins. […] BRET ratios were calculated as described in experimental procedures.

[2] = target: T2, ERα LBD (Homo sapiens, UniProt P03372); assay: GST pull-down of in vitro translated LCoR with GST-ERα LBD; assay type: binding; settings: ligand added to 10^−6 M
T2 construct: the ERα LBD fused to GST (GST-ERα-LBD); made in house; LCoR by in vitro translation
T2 sequence (P03372 311-547 limits assumed): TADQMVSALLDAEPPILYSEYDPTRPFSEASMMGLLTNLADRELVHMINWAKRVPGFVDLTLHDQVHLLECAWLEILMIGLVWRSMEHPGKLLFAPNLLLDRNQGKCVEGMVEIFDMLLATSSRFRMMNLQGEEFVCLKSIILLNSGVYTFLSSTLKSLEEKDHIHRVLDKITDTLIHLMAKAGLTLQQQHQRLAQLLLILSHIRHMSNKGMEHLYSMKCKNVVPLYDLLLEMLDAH

[3] = target: T3, CtBP1 (Homo sapiens, UniProt Q13363); assay: GST pull-down of in vitro translated CtBP1 with GST-LCoR; assay type: binding
T3 construct: made in house; host or cells: CtBP1 by in vitro translation
Experimental: GST pull-down assays were performed as described (Eng, F.C.S. et al. (1998) J. Biol. Chem., 273, 28371-7), with the exception that assays performed with in vitro translated ER378 included two more washes made with the GST buffer containing 150 mM NaCl. For immunoprecipitations of tagged proteins, COS-7 cells in 100 mm dishes were transfected with 6 μg of HA-LCOR and/or 6 μg of HA-Flag-HDAC6 or with 6 μg of Flag-LCoR and/or 6 μg of HA-HDAC3 and pSG5 carrier. 48 h after transfection, cells were lysed 30 min at […] in 1 ml of JLB (20 mM Tris-HCl, pH8, 150 mM KCl, 10% glycerol, 0.1% IGEPAL CA-630, and complete protease inhibitor cocktail; Boehringer-Mannheim, Laval, Qc). Cell debris were pelleted by centrifugation (14,000 rpm, 5 min), and proteins immunoprecipitated from 600 μl of supernatant by incubation for 1 h at 4° C. with 4 μg of α-Flag M2 antibody or polyclonal anti-HDAC3, followed by overnight incubation with protein A+G agarose or protein-A agarose beads for anti-Flag, and anti-HDAC3, respectively. Beads were washed (3×) with JLB. Bound immunocomplexes were boiled in Laemmli buffer, separated by 10% SDS/PAGE, and blotted on PVDF membrane with α-Flag M2-peroxidase, α-HDAC3, α-HA-peroxidase (1:500), and detected by enhanced chemiluminescence (NEN Life Science Products, Boston, Mass.). […]

[4] = test system: HDAC6; assay: ERα-dependent CAT reporter with LCoR and HDAC6 cotransfection in MCF-7 cells; assay type: cell-based, human; settings: estradiol 10 nM, TSA 500 nM, trapoxin 50 nM
Experimental: All cells were cultured under the recommended conditions. For immunocytochemistry, COS-7 cells grown on collagen IV-treated microscope slides in 6-well plates in DMEM, supplemented with 10% FBS were transfected in medium without serum with 12.5 μl of lipofectamine 2000 (Invitrogen, Burlington, Ont.) containing 1 μg each of pSG5/LCoR and HA-Flag-HDAC6/pcDNA3. Medium was replaced 24 h after transfection and cells were prepared for immunocytochemistry after 48 h as described below. For immunoprecipitation of tagged proteins, MCF-7 cells in 100 mm dishes were transfected with 10 μl of lipofectamine containing 10 μg of pSG5 vectors containing Flag-LCoR, Flag-m1, Flag-m2 or Flag-m1+2. For analysis of the effects of HDACs 3 or 6 on LCoR corepression, COS-7 cells (60-70% confluent) grown in DMEM without phenol red, supplemented with 10% FBS on 6-well plates were transfected in medium without serum with lipofectamine 2000 (Invitrogen, Burlington, Ontario, Canada) with 100 ng of ERα expression vectors as indicated, 300 ng of LCoR/pSG5, 300 ng of HA-HDAC3/pCDNA3.1 or […], 250 ng of ERE3-TATA-CAT reporter plasmid, 250 ng of internal control vector pCMV-βgal, and pBluescript carrier DNA to 4 μg. Medium was replaced 18 hr after transfection by a medium containing charcoal-stripped serum and ligand (10 nM) for 30 hr, as indicated. […]

## 4-hydroxytamoxifen
[1]
  effect on BRET ratio: no significant effect
[2]
  induction of interaction of LCoR with ERα: did not induce interaction

## NC(=O)C1=CN([C@@H]2O[C@H](COP(=O)(O)OP(=O)(O)OC[C@H]3O[C@@H](n4cnc5c(N)ncnc54)[C@H](O)[C@@H]3O)[C@@H](O)[C@H]2O)C=CC1 [NADH]
[3]
  effect on interaction of CtBP1 with LCoR in vitro: no effect

## O=C1N[C@@H](Cc2ccccc2)C(=O)N2CCC[C@@H]2C(=O)N[C@@H](CCCCCC(=O)[C@@H]2CO2)C(=O)N[C@H]1Cc1ccccc1 [trapoxin] (cyclo(FF[dP][Aoe]))
[4]
  effect on HDAC6 repression / enhancement of LCoR corepression of ERα transactivation: not
